Patent US4970214A, “Quinoline substituted oxomethyl or thioxomethyl glycine derivatives and aldose reductase inhibition therewith” (Nippon Shinyaku Co., Ltd., priority 1986, dated 1990)

Tests used:
aldose reductase [1] = molecular target: T1, aldose reductase (Bos taurus, UniProt P16116); experiment: Activity of aldose reductase, in vitro; assay type: biochemical; conditions: aldose reductase from crystal eye of cow
T1 construct: The aldose reductase used was that obtained from crystal eye of cow; from tissue; host or cells: cow eye lens
From the text: The aldose reductase used was that obtained from crystal eye of cow and the measurement was done in vitro.

[2] = tested on: Accumulation of Galactitol in sciatic nerve; experiment: Accumulation of galactitol in sciatic nerve after single oral galactose; assay type: in vivo, rat (Sprague-Dawley); conditions: 4 hours prior to 5 g/kg galactose, rats sacrificed after 3 hours
Description: (B) Male rats of Sprague-Dawley strain (body weight: 150 to 200 g) were fasted overnight and used in the test (one group comprised 4 rats). To all groups were given 5 g/kg of galactose orally, then the rats were sacrificed after 3 hours, and sciatic nerve was taken out and weighed. The content of galactitol in the sciatic nerve was measured by high performance liquid chromatography in accordance with a method by Jean-Marie Dethy (Anal. Biochem. 143, 119, 1984). The test compound was given orally 4 hours prior to the administration of galactose. To the control group was given 0.5% methylcellulose.

[3] = tested on: amounts of inositol and galactitol in the sciatic nerve; experiment: Inositol and galactitol in sciatic nerve of rats fed 20% galactose diet for 4 days; assay type: in vivo, rat (Sprague-Dawley); conditions: 9 a.m. and 5 p.m., rat sciatic nerve
Description: (C) Non-fasted male rats of Sprague-Dawley strain (5 rats in one group) of 150-220 g body weight were used. To all groups was administered 20% galactose diet (a mixture of galactose and F-2 which is a product of Funahashi Farm) and fed for 4 days. The test compound was given orally at 9 a.m. and 5 p.m. from the first to the fourth day. On the fifth day, the rats were sacrificed, sciatic nerve was taken out, and the amounts of inositol and galactitol in the sciatic nerve were measured by the method as given before.

Male mice of ddY strain = experiment: Acute toxicity, oral, rate of death and general symptoms; assay type: in vivo; conditions: for rate of death: two weeks
From the text: Male mice of ddY strain (5 weeks of age) were used (one group comprised 4 to 5 mice).

aldose reductase [4] = experiment: Aldose reductase inhibiting action (statement in words, test not described)

SMILES	IC50 (aldose reductase [1])	Inhibition rate (%) against Accumulation of Galactitol in sciatic nerve ([2]; 20 mg/kg oral)	Inhibition rate (%) against Accumulation of Galactitol in sciatic nerve ([2]; 50 mg/kg oral)	Inhibition rate (%) against Accumulation of Galactitol in sciatic nerve ([2]; 100 mg/kg oral)	Inhibition Rate (%) ([3]; 10 mg/kg oral)	Inhibition Rate (%) ([3]; 20 mg/kg oral)	rate of death (Male mice of ddY strain; 1000 mg/kg oral)	case of death (Male mice of ddY strain; 3 g/kg oral)	Inhibition rate (%) against Accumulation of Galactitol in sciatic nerve ([2]; 10 mg/kg oral)	Inhibition Rate (%) ([3]; 5 mg/kg oral)	rate of death (Male mice of ddY strain; 500 mg/kg oral)	aldose reductase inhibiting action (aldose reductase [4])
CN(CC(=O)OCCO)C(=S)c1cc(-c2ccccc2)nc2ccccc12 [Compound 1, β-Hydroxyethyl ester of N-[(2-phenylquinolin-4-yl)thioxomethyl]-N-methylglycine]	> 8.7 µM	54.88%	84.57%	92.57%	45%	67%	0/4	no case of death				
Cc1cc(C(=S)N(C)CC(=O)OCCO)c2cccc(C(F)(F)F)c2n1 [Compound 2, β-Hydroxyethyl ester of N-[(2-methyl-8-trifluoromethylquinolin-4-yl)thioxomethyl]-N-methylglycine]	> 8.7 µM	91.28%	98.19%		46%	77%			45.37%	27%		
CN(CC(=O)OCCO)C(=S)c1cc(-c2ccccc2F)nc2cc(F)ccc12 [Compound 3]	> 8.7 µM	32.68%	70.78%		26%	37%	0/4					
CCc1cc(C(=S)N(C)CC(=O)OCCO)c2cccc(C(F)(F)F)c2n1 [Compound 5, β-Hydroxyethyl ester of N-[(2-ethyl-8-trifluoromethylquinolin-4-yl)thioxomethyl]-N-methylglycine]		13.98%	79.66%				0/4					
COc1ccc2c(C(=S)N(C)CC(=O)O)cccc2c1C(F)(F)F [Tolrestat, reference compound]		28.26%	68.00%	95.43%	86%	96%	3/4		21.01%	34%	2/4	
O=C(O)CNC(=O)c1cc(-c2ccccc2)nc2ccccc12 [[(2-phenylquinolin-4-yl)carbonyl]glycine]												does not exhibit the aldose reductase inhibiting action
